Usually kcat stands for the number of substrate molecules converted per active site and unit of time at saturation. In general, Km refers to the substrate concentration at which the rate is half of its maximum. The term Vmax denotes the rate approached at saturating substrate.

For data set [1], the target named is T1, purified His6-hPGES (Homo sapiens, UniProt O14684).
T1 sequence (O14684 1-152): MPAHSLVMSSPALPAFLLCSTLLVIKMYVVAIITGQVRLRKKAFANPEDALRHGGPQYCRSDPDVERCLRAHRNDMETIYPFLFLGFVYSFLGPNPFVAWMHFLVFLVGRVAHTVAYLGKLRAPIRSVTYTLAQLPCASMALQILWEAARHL
Put plainly: PGES activity assay: glutathione dependent conversion of PGH2 to PGE2 by purified His6-hPGES. In kind it is biochemical. Also noted: made in house; host or cells: E. coli BL21(DE3) with pLysSL. The conditions noted are these: sulfhydryl compound in place of GSH.

Data set [2] has as its target T1, purified His6-hPGES. Put plainly: Reduction of 15-hydroperoxy-PGE2 (peroxidase activity) by purified his6-hPGES. Further details: made in house; host or cells: E. coli BL21(DE3) with pLysSL. In kind it is biochemical. The conditions noted are these: 37 ° C., 0.1 mg/ml enzyme, 0.16 mM 15 hydroperoxy-PGE2. The procedure:
This is presented in a typical chromatogram (FIG. 12B) as compared to the buffer control (FIG. 12C) after 30 seconds of incubation.

Data set [3] concerns the target T1, purified His6-hPGES. Put plainly: PGES activity assay: glutathione dependent conversion of PGH2 to PGE2 by purified His6-hPGES. In kind it is biochemical. Also noted: made in house; host or cells: E. coli BL21(DE3) with pLysSL. To be noted: for Specific activity: at Vmax. The method, then: PGE synthase activity of the purified polypeptide, i.e., the ability to catalyze the conversion of a substrate of PGES into a 9-keto, 11-alpha-hydroxy form, e.g., PGH2 into PGE2 can be determined as follows. […] The polypeptide suspected of having PGES activity is incubated in a buffer, e.g., a sodium phosphate buffer in the presence of about 1 to 5 mM, preferably, 2.5 mM glutathione (GSH). The reaction is started by the addition of PGH2 at about 5 to 20 μM, and preferably 10 uM, and the reaction mixture is then incubated either at 37° C., at room temperature, or preferably, at 0° C., for about one to ten minutes, and preferably, for about one minute. The reaction can be terminated by the addition of a solution reducing the pH to about 3 or 3.2. This can be achieved by the addition of acetonitrile/HCl (as described in Jakobsson et al. (1999) PNAS 96:7220) or by the addition of FeCl2, citric acid, and/or 11-beta PGE2, as described in the Examples. The formation of PGF2 alpha, PGE2 and PGD2 can be determined by reverse-phase high pressure liquid chromatograph (HPLC) and UV detection at 195 nm. For subjecting the proteins to HPLC, the reaction mixtures can be subjected to solid phase extraction, e.g., using C18 Chomabond columns; the samples eluted with acetone, dried and dissolved in acetonitrile. The samples are then ready for HPLC. More details of these methods are provided in the Examples, as well as in Jakobssen et al., supra, and in published PCT application No. WO 00/28022 by Jakobsson et al.
(§1) PGES activity was assayed in 50 mM sodium phosphate buffer, pH 7.4, in the presence of 2.5 mM reduced glutathione (GSH; obtained from Sigma Chemical Co. (St. Louis, Mo.) and either zero; 0.2; 0.4 or 0.6 mg/ml of purified hPGES. The reaction was started by the addition of 10 μM PGH2, and the samples were incubated for 1 minute at 0° C. until terminated by 20 mM FeCl2, 40 mM citric acid and 2.1 μM 11-β. PGE2, lowering the pH to 3. PGH2 was prepared by brief incubation of arachidonic acid with suspensions of the microsomal fraction of homogenate of the sheep vesicular gland essentially as described in Hamberg et al. (1974) PNAS 71:345 or Hecker et al. (1987) Biochem. Pharmacol. 36:851. L-tryptophan (5 mM) was used as electron donor. Purification was accomplished by straight-phase HPLC using a solvent system of 2.5% 2-propanol-hexane containing 0.002% acetic acid. Solid phase extraction using C18 Chromabond columns was performed immediately. The samples were eluted with acetone, dried and dissolved in acetonitrile (⅓ by vol. in H2O) and the formation of PGE2 was analyzed by reverse-phase HPLC on a C18 (3.9×150 mm, 4 μM particle size) column and UV detection at 195 nm.
(§2) The remaining protein was divided in two parts, one was stored at 4° C. for 5 days, and one was frozen and stored at −20° C. for the same time. The PGES activity in the three samples was compared with that in a membrane fraction without solubilization. PGES activity was determined, as described above, for various amounts of protein. The samples were incubated for 1 min on ice or at 37° C. before stopping the reaction. The activity of the purified proteins was compared with the activity in BL21(DE3) membrane fraction without solubilization.
(§3) All points were made in triplicate. The Michaelis-Menten constants KM and Vmax (maximum velocity) were derived by hyperbolic regression with the computer program GraphPad Prism software 3.0 or 3.02 (GraphPad Software, Inc., San Diego, Calif.).

The target of data set [4] is T1, purified His6-hPGES. In words: Glutathione transferase (GST) activity of purified His6-hPGES with CDNB. In kind it is biochemical. Further details: made in house; host or cells: E. coli BL21(DE3) with pLysSL. To be noted: pre-incubation with 5 mM N-ethylmaleimid in the absence of GSH for 1 minute. The procedure:
Glutathione transferase (GST) activity (glutathione conjugation) was assayed with the classical model substrate for GSTs, p-chloro-2,4-dinitrobenzene (CDNB). […] Formation of product was detected at 340 nm (molar absorption coefficient for the product, GS-DNB, is 9.6 mM^−1 cm^−1).

Data set [5] concerns the target T1, purified His6-hPGES. In words: Isomerization of PGG2 into 15-hydroperoxy-PGE2 by purified His6-hPGES. In kind it is biochemical. Further details: made in house; host or cells: E. coli BL21(DE3) with pLysSL. The method, then:
PGG2 was prepared similarly to PGE2 (described above), omitting the L-tryptophan. The reaction was terminated by lowering the pH to 3 by adding 6 μl HCl (1M). Then, 45 μl acetonitrile was added and centrifugation was performed at 14,000 g, for 1 minute to remove the protein. […] In order to determine the formation of PGE2 and 15-Hydroperoxy PGE2, an aliquot (100 μl) was analyzed by RP-HPLC, combined with UV detection at 195 nm. The products were quantified based on the peak areas from known amounts of injected prostaglandins.

In data set [6] the target is T1, purified His6-hPGES. To be noted: 37 ° C., 0.05 mg/ml enzyme, 1 mM GSH, 0.5 mM cumene hydroperoxide.
The format of data set [7] is physicochemical. The procedure: Membrane fractions were solubilized in 50 mM sodium phosphate buffer, pH 8.0, 150 mM NaCl, 4% Triton X-100, 10% glycerol and 1 mM GSH and stored at 4° C. Samples were assayed for PGES activity as described above after 0, 3, 6, 24 and 240 h (10 days) at 4° C.
as §2

The nature of data set [8]: Specific activity and kinetic properties of purified His6-hPGES for conversion of PGH2 to PGE2. To be noted: for Specific activity of the purified His6-hPGES: glutathione dependent conversion of PGH2 to PGE2. In kind it is biochemical. The procedure:
as §1, §2, §3

Setting [9] is: 37° C., steady state, KM values apparent, read-out: KM.

Where two headings read alike, the source gives them in different places.

Consider `O[C@H](CS)[C@H](O)CS` (racemic) [dithiothreitol], for which the “PGES activity when GSH was substituted by other sulfhydryl compounds” value (“PGES activity when GSH was substituted” below) on purified His6-hPGES [1] was “no PGES-activity could be detected”.
Turning to `OCCS` [2-mercaptoethanol], the “PGES activity when GSH was substituted” value on purified His6-hPGES [1] is given as “no PGES-activity could be detected”.
On to `CCCCC[C@@H](/C=C/[C@H]1[C@H](O)CC(=O)[C@@H]1C/C=C\CCCC(=O)O)OO` [15-hydroperoxy-PGE2, 15-Hydroperoxy PGE2], for which the results for the “Specific activity (reduction of 15-hydroperoxy-PGE2)” value on purified His6-hPGES [2] and at purified His6-hPGES [2] (listed as 15-HP PGE2) were 0.043 ± 0.019 µmol/min/mg and “no peroxidase activity towards this compound was detected”, respectively.
For the molecule `N[C@@H](CCC(=O)N[C@@H](CS)C(=O)NCC(=O)O)C(=O)O` [GSH, reduced glutathione], on purified His6-hPGES [3] (37° C., steady state), the kcat was found to be 21 ± 1 s⁻¹. Also, the Km at purified His6-hPGES [3] (setting [9]) is 710 ± 200 µM.
In the case of `CC(=O)N[C@@H](CS)C(=O)O` [N-acetylcysteine], the “PGES activity when GSH was substituted” value on purified His6-hPGES [1] was “no PGES-activity could be detected”.
With `CCN1C(=O)C=CC1=O` [N-ethylmaleimide], the “Reduction of PGES activity” value at purified His6-hPGES [3] (pre-incubation with 5 mM N-ethylmaleimide in the absence of GSH for 1 minute) is on record as about 100%. Also, the “Reduction of GST enzyme activity” value at purified His6-hPGES [4] is given as 50%.
In the case of `CCCCC[C@@H](/C=C/[C@@H]1[C@@H](C/C=C\CCCC(=O)O)[C@@H]2C[C@H]1OO2)OO` [PGG2], the kcat at purified His6-hPGES [5] (37° C., steady state, PGG2 as substrate) turned out to be 75 ± 4 s⁻¹. Further, at purified His6-hPGES [5] (37° C., steady state, PGG2 as substrate, apparent), the Km was determined as 160 ± 30 µM. For the same molecule, on purified His6-hPGES [5] (37 ° C., substrate PGG2, highest measured specific activity), the Specific activity worked out at 250 ± 15 µmol/min/mg.
On to `CCCCC[C@H](O)/C=C/[C@@H]1[C@@H](C/C=C\CCCC(=O)O)[C@@H]2C[C@H]1OO2` [PGH2, Prostaglandin endoperoxide H2], for which the Vmax is 0.25 ± 0.013 µM/s at purified His6-hPGES [3] (0° C., 1 μg/ml purified PGES, 2.5 mM GSH, varying PGH2) and 1.39 ± 0.16 µM/s on purified His6-hPGES [3] (37° C., 1 μg/ml purified PGES, 2.5 mM GSH, varying PGH2). For the same molecule, the Km at purified His6-hPGES [3] (0° C., 1 μg/ml purified PGES, 2.5 mM GSH, varying PGH2, read-out: Km for PGH2) is 50 ± 8.9 µM; on purified His6-hPGES [3] (37° C., 1 μg/ml purified PGES, 2.5 mM GSH, varying PGH2, read-out: Km for PGH2) it was 163 ± 42 µM; on purified His6-hPGES [3] (setting [9]), 160 µM. In addition, at purified His6-hPGES [3] (37° C., steady state), the kcat amounted to 50 ± 6 s⁻¹. Besides, the Specific activity on purified His6-hPGES [3] (substrate PGH2, 0 ° C.) stood at 15 µmol/min/mg; at purified His6-hPGES [3] (substrate PGH2, 37 ° C.), 170 ± 20 µmol/min/mg.
cumene hydroperoxide: the “Specific activity (GSH-dependent peroxidase)” value at purified His6-hPGES [6] came to 0.17 ± 0.02 µmol/min/mg; at purified His6-hPGES [6] (listed as cumene hydroperoxide), 0.17 µmol/min/mg.

B1: His6-hPGES: full length human PGES fused at its N-terminus to six histidine residues (SEQ ID NO: 4), expressed in E. coli (protein)
chain: MHHHHHHMPAHSLVMSSPALPAFLLCSTLLVIKMYVVAIITGQVRLRKKAFANPEDALRHGGPQYCRSDPDVERCLRAHRNDMETIYPFLFLGFVYSFLGPNPFVAWMHFLVFLVGRVAHTVAYLGKLRAPIRSVTYTLAQLPCASMALQILWEAARHL
Consider B1, for which the Original activity remaining result in data set [7] (816 h) is reported as “about 50%”. Besides, the “PGES activity in BL21 (DE3) membranes” value in data set [7] (in the absence of glycerol and GSH) was “rapidly declines within a period of 24 h”. The “PGES activity after heating” value in data set [7] (purified enzyme heated at 100° C. for 10 minutes) is listed as “no PGES-activity could be detected”. Besides, the “Activity compared to the freshly prepared enzyme” value in data set [7] (purified enzyme, five days of storage at 4° C.) was “unchanged”. The “Loss of activity on storage” value in data set [7] (purified enzyme, up to at least two months at −20° C.) is “does not seem to result in any loss of activity”. Further, the “Specific activity of the purified His6-hPGES” value in data set [8] (0° C.) came to 15 µmol/min/mg. For the same molecule, the “Specific activity of the purified His6-hPGES” value in data set [8] (37° C.) was 167 µmol/min/mg. In data set [8] (Human, recombinant), the Km came to 163 µM, the “Spec. Act.” value came out at 167 µmol/min/mg and the kcat was determined as 50 s⁻¹.

The values above are taken from patent US20030157084A1, “Methods for preparing purified prostaglandin E synthase” (priority 2001, published 2003).
